pIC50: −log10 of the molar value.

The target of one assay is JAK3 (Homo sapiens (Human), UniProt P52333). The assay can be described thus: Eurofins IC50Profiler radiometric kinase assay, JAK3. Particulars: 9 semilog concentrations. In kind it is biochemical. An excerpt:
A proportion of the compounds of the present invention are subjected to kinase profile screening (KinaseProfiler™)) and enzymatic inhibitory activity (IC50Profiler™)) assay by entrusting Eurofins company (http://www.eurofins.com). Besides the kinases in the JAK family, the kinases that have been screened for their activity also include most Group 3F and Group 4 kinases (ITK, BLK, TBK1, VEGFRs, ERBBs, etc.), and blood system related kinases (Zhang J. et al. 2009, Nat. Rev. Cancer., 9: 28-39). The concentration of the test compound for kinase profile screening is 1 μM, and a gradient of 9 semilog concentration gradients are used to determine IC50. Detection is carried out according to standard procedure of Eurofins Company. Briefly, according to the requirements of different kinase reactions, 0.2 μL test compound (50 μM, dissolved in dimethyl sulfoxide (DMSO)) is added to reaction buffer containing specific kinase (the buffer system containing 20 mM MOPS, 1 mM EDTA, 0.01% Brij-35, 5% Glycerol, 0.1% β-mercaptoethanol, 1 mg/mL BSA, or 50 mM TRIS, 0.1 mM EGTA, 0.1 mM Na3VO4, 0.1% β-mercaptoethanol, 1 mg/mL BSA, based on the type of kinase used). Subsequently, a kinase specific substrate at a final concentration of 50 μM (specific substrate used for specific kinase), 10 mM Mg Acetate and isotope-labeled γ-^33P ATP (radio-activity of about 500 cpm/pmol) are sequentially added to a total volume of 10 μL for the reaction system. After incubation at room temperature for 40 min, the reaction is terminated by adding 3% phosphoric acid solution. The mixture is then transferred to a filter-type low temperature spray dryer (P30 filtermat), and washed by 75 mM phosphoric acid solution for 3 times and by methanol once. After drying, radio-activity is detected. For specific procedure, see the standard procedure provided by Eurofins Company: http://www.eurofins.com/media/9724077/kinaseprofiler_assay_protocol_guide_eurofins_v64.pdf).

Another assay has as its system HeLa cells. The assay can be described thus: Cell growth activity assay (MTS), HeLa cell model. In kind it is cell-based, human. Particulars: Homo sapiens, HeLa, 72 h; for activity: read-out: HeLa % growth rate. On the set-up: activity: dose or concentration left out as unconfirmed. The method in brief:
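HeLa human cervical cancer cells were plated at about 5000 cells/well in a 96-well plate. After 24 h, test compounds were added in concentration gradients (highest final concentration 40 μM), alongside a DMSO solvent control and a negative control. After another 72 h, the medium was replaced with 100 μL fresh medium plus 20 μL MTS/PMS (20:1). Plates were incubated 2 h at 37° C. and absorbance was read at 490 nm to give growth inhibition and GI50.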

Chain of JAK3 (P52333 whole entry, species assumed): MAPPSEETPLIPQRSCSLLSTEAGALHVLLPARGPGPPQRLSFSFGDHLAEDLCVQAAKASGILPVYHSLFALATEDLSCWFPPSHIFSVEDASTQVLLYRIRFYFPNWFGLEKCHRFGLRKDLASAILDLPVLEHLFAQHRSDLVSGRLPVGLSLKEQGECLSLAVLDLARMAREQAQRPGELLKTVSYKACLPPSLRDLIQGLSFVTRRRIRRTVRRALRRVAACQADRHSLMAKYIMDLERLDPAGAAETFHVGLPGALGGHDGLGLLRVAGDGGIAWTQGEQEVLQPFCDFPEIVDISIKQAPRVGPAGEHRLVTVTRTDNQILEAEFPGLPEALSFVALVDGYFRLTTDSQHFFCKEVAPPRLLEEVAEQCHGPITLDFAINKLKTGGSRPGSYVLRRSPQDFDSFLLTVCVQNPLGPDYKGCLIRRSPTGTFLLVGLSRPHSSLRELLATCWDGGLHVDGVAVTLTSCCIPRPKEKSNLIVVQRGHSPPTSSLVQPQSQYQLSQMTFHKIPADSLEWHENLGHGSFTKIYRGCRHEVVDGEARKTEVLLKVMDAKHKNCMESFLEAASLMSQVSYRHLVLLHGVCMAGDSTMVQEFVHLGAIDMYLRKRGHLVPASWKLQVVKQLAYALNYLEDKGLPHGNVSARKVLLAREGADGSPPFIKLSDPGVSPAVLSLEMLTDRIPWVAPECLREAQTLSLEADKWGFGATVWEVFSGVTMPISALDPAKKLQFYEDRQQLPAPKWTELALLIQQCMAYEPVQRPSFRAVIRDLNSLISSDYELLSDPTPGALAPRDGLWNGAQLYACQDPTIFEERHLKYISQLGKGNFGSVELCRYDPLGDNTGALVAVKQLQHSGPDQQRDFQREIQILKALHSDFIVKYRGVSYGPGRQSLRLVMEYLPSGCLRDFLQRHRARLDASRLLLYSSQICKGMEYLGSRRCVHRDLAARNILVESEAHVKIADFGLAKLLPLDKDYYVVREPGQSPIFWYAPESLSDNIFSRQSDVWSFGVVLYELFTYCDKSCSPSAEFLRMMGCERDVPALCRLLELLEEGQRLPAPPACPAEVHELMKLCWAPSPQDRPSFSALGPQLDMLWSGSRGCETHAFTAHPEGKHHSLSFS

The term pIC50 denotes −log10 of the IC50, conventionally taken in molar units. Broadly, the GI50 is the concentration giving 50% growth inhibition. In the case of `C=CC(=O)N(C)c1cc(Nc2ncc(Cl)c(NCCCNC(=O)c3ccc(C#N)cc3)n2)ccc1F` [Example 7, N-(3-(5-chloro-2-(4-fluoro-3-(N-methylacrylamido)phenylamino)pyrimidinyl-4-amino)propyl)-4-cyano-benzamide], the negative-log IC50 (pIC50) at JAK3 is 7.96. Also, in the assay on HeLa cells, the GI50 is greater than 40000 nM and the activity is 98%.

In turn, `C=CC(=O)N(C)c1cc(Nc2ncc(Cl)c(NCCCNC(=O)c3ccc(C(F)(F)F)cc3)n2)ccc1F` [Example 22, N-(3-(5-chloro-2-(4-fluoro-3-(N-methylacrylamido)phenylamino)pyrimidinyl-4-amino)propyl)-4-trifluoromethylbenzamide] had a pIC50 against JAK3 of 7.68. Also, in the assay with HeLa cells, the GI50 was greater than 40000 nM and the activity turned out to be 78%.

The compound `C=CC(=O)N(C)c1cc(Nc2ncc(Cl)c(NCCCNC(=O)c3ccc(F)cc3)n2)ccc1F` [Example 23, N-(3-(5-chloro-2-(4-fluoro-3-(N-methylacrylamido)phenylamino)pyrimidinyl-4-amino)propyl)-4-fluorobenzamide] showed a pIC50 against JAK3 of 7.96. The activity with HeLa cells stood at 96%.

Values taken from US10011571B2, “Preparation method for aromatic heterocyclic compound used as selective JAK3 and/or JAK1 kinase inhibitor and application of aromatic heterocyclic compound” (SHENZHEN CHIPSCREEN BIOSCIENCES, LTD., priority 2014, dated 2018).
